Read-outs that look alike come from different tables or passages of the source.
How the values were obtained:
SW620 tumor organoids [1] = experiment: Western blot of treated SW620 tumor organoids; type: cell-based, human
Protocol: CRC cell lines and homogenized tumor tissue samples from mice were resuspended in RIPA lysis buffer (20 mM Tris-HCl (pH 7.5), 150 mM NaCl, 1 mM Na2EDTA, 1 mM EGTA, 1% NP-40, 1% sodium deoxycholate, 2.5 mM sodium pyrophosphate, 1 mM b-glycerophosphate, 1 mM Na3VO4, 0.1 mM PMSF. Protein concentration was determined using the Pierce™ BCA protein assay kit (ThermoFisher, Waltham, Mass.). Forty micrograms of sample were run on 10% Bis-Tris gels. Following electrophoresis, the proteins were transferred to a nitrocellulose membrane. The membranes were blocked at room temperature with 5% non-fat milk in TBS/Tween® 20 (TBST contains 20 mM Tris, 150 mM NaCl, and 0.1% Tween®20 (Croda International PLC, Snaith, UK) for 1 hour at room temperature. Membranes were washed three times with TBST. Blots were incubated with the appropriate primary antibody in 5% nonfat milk in TBST overnight at 4° C. Membranes were washed three times with TBST and then incubated with appropriate secondary antibody for one hour. Membranes were washed again with TBST three times. Blots were exposed using SuperSignal™West Pico PLUS Chemiluminescent Substrate (ThermoFisher, Waltham, Mass.) and imaged using a ChemiDoc imaging system (Bio-Rad, Hercules, Calif.). [See: Abbott et al., 2020 and its Supplementary Information for Western Blots]

[2] = system: vimentin promoter activity; experiment: VimPro-GFP reporter 3D high-content imaging in tumor organoids; type: cell-based, human; conditions: 72 h
Protocol: After validating hits 5-7 against CHD1L mediated TCF transcription, the ability of these compounds to reverse EMT and other malignant properties in CRC were evaluated. E-cadherin and vimentin are putative biomarkers for the epithelial and mesenchymal phenotypes, respectively. [McDonald et al., 2015] Loss of E-cadherin and gain of vimentin are also clinical biomarkers of poor prognosis. [Yun et al., 2014; Richardson et al., 2012; Dhanasekaran et al., 2001; Kashiwagi et al., 2010; Toiyama et al., 2013] Accordingly, lentiviral promoter driven reporters for E-cadherin (pCDH1-EcadPro-RFP) and vimentin (pCDH1-VimPro-GFP) were developed, which faithfully report E-cadherin and vimentin protein expression, respectively. [Zhou et al., 2016; Abraham et al., 2019] SW620 cells transduced with either EcadPro-RFP or VimPro-GFP were cultured as tumor organoids for 72 h, reaching a diameter of 600 μm. Tumor organoids were treated with compounds 5-7 for an additional 72 h to determine the effective concentration 50 percent (EC50) for modulating promoter activity. Changes in promoter expression was quantified using a 3D confocal image […] based high-content analysis algorithm (FIG. 2A-2B). [Zhou et al., 2016; Abraham et al., 2019]
Stable VimPro-GFP or EcadPro-RFP SW620 reporter cells were generated using pCDH imPro-GFP-EF1-puro virus or pCDH-EcadPro-mCherry-EF1-puro virus as previously reported. [Zhou et al., 2016; Abraham et al., 2019] The stable fluorescently labeled reporter cells were used to generate tumor organoids as described herein. Tumor organoids were treated with CHD1L inhibitors at 10 μM for an additional 72 h. Following treatment, tumor organoids were stained with 16 μM of Hoechst 33342 for 1 h (nuclei stain). Images were taken with a 5× air objective. Z-stacks were set at 26.5 μm apart for a total of 15 optical slices. Imaging and high-content analysis were performed using an Opera Phenix™ and Harmony® software (PerkinElmer, Hopkinton, Mass.). Nuclei were identified within each layer and cells were found with either GFP or mCherry channel. The fluorescence intensities of each channel were calculated and thresholds were set based on the background intensities. Percentages of GFP or mCherry RFP positive cells were calculated and normalized to the DMSO treated group.
3D High-Content Imaging and Analysis of EMT Dual-Reporter Activity. Tumor organoids were imaged using the Opera Phenix high-content screening system (PerkinElmer) in confocal mode utilizing a 10× air objective (NA 0.3). […] Organoids were also imaged in Brightfield to segment and perform high-content analysis of dual reporter specific fluorescence intensity. […] Both fluorescent signals were quantified and normalized as previously described. […]

HCT116 cells = experiment: Invasion assay (scratch wound in Matrigel); type: cell-based, human; conditions: 50% Matrigel, 48-72 h
Protocol: A hallmark of EMT is an increase in CSC stemness and cell invasion. Therefore, the ability of compounds 5-7 to inhibit migration and invasion in HCT-116 and DLD1^CHD1L-OE cells was tested. […] Note that DLD1^CHD1L-OE cells form two times more colonies than HCT-116 cells, which have moderate CHD1L expression. This observation is consistent with CHD1L's oncogenic and tumorigenic properties. Next, using HCT-116 cells with uniform scratch wounds imbedded in 50% Matrigel® matrix (Corning Life Sciences, Corning, N.Y.) cells were treated with CHD1L inhibitors at concentrations indicated and invasion was monitored over 72 h.
HCT116 cells were plated at 60,000 cells/well into an IncuCyte® ImageLock 96-well plate (Sartorius, France) and allowed to attach overnight. A wound was created in all wells using the IncuCyte® WoundMaker then washed 2× with PBS. The plate was brought to 4° C. using a Corning XT Cool Core to avoid polymerization of the Matrigel® matrix (Corning Life Sciences, Corning, N.Y.) during the preparation of the invasion conditions. Wells were coated with 50 μL of 50% Matrigel® matrix in RPMI-1640 media. Plates were centrifuged at 150 rpm at 4° C. for 3 min, using a swing bucket rotor to ensure even matrix coating with no air bubbles. […]

SW620 tumor organoids [3] = experiment: Tumor organoid cytotoxicity (CellTiter-Glo 3D); conditions: Homo sapiens
HCT116 tumor organoids = experiment: Tumor organoid cytotoxicity (CellTiter-Glo 3D); type: cell-based, human; conditions: Homo sapiens
Protocol: Cell based cytotoxicity dose response and combination studies. […] Plates were then incubated for 3 days before treatment.
Cell Line Tumor Organoid Culture.
Tumor Organoid Cytotoxicity.

[4] = SW-620, read-out: Tumor Organoid Cytotoxicity IC50 (μM) SW620
[5] = HCT-116, single agent, Table 4A, read-out: Tumor Organoid Cytotoxicity IC50 (μM) HCT116

| SMILES | E-cadherin cleavage (marker of apoptosis) (SW620 tumor organoids [1]) | EC50 ([2]; Homo sapiens, SW-620, read-out: EC50 downregulation of vimentin promoter activity, SW620 tumor organoids) [µM] | cleaved PARP1, cleaved caspase 8 and cleaved caspase 3 (SW620 tumor organoids [1]; relative to DMSO control) | inhibition of invasion, in words (HCT116 cells; listed as 6.0) | IC50 (SW620 tumor organoids [3]; [4]) [µM] | IC50 (HCT116 tumor organoids; [5]) [µM] | inhibition of invasion, in words (HCT116 cells) | IC50 (SW620 tumor organoids [3]; SW-620, 72 h, read-out: 3 D Cytotoxicity 72 hr IC50 (μM) SW620) [µM] | downregulation of vimentin promoter activity (VimPro-GFP), in words ([2]; SW620 or HCT116 tumor organoids) | IC50 (HCT116 tumor organoids; HCT-116, 72 h, Table 6, read-out: 3 D Cytotoxicity 72 hr IC50 (μM) HCT116) [µM] |
| --- | --- | --- | --- | --- | --- | --- | --- | --- | --- | --- |
| COc1ccc(-c2nc(S(=O)(=O)c3ccccc3)c(S(C)(=O)=O)o2)cc1 [Compound 5] | E-cadherin is cleaved | 15.6 ± 1.7 |  |  |  |  |  |  |  |  |
| Cc1cc(Nc2ccc(NC(=O)Cc3cccs3)cc2)nc(N2CCCC2)n1 [Compound 6, N-(4-((6-methyl-2-(pyrrolidin-1-yl)pyrimidin-4-yl)amino)phenyl)-2-(thiophen-2-yl)acetamide] | E-cadherin is cleaved |  | increases in cleaved PARP1, cleaved caspase 8, and cleaved caspase 3 | most potent activity | 4.6 | 4.93 |  |  |  |  |
| Cc1cc(Nc2ccc(NC(=O)c3c[nH]c4ccccc34)cc2)nc(N2CCCC2)n1 [Compound 6.3, N-(4-((6-methyl-2-(pyrrolidin-1-yl)pyrimidin-4-yl)amino)phenyl)-1H-indole-3-carboxamide] |  |  |  |  | 3.8 | 3.72 | significantly inhibits HCT116 invasive potential | 3.6 | downregulation of vimentin | 3.7 |
